What was measured:
[1] = system: PCR product (primer pair SK-38/39 analogs); experiment: Post-amplification sterilization with AMT; format: biochemical; settings: AMT 100 μg/ml, irradiated CE-III; 10^4 to 10^10 copies carried over; 30 cycles
Protocol: A PCR sample is prepared for amplification with the following changes. Instead of AMDMIP, AMT is added prior to amplification at a concentration of 100 μg/ml. Instead of primer pair SK-38/39, the biotinylated analogs, in which biotin has been appended to the 5′ end of one or both primers via an intervening tetraethylenglycol bridge (ester linkage to the biotin), are used. Following 30 cycles of PCR, the reaction vessel is exposed to 300-400 nm light on the CE-III device. Following irradiation, the PCR reaction vessel is opened and the PCR product removed. Free primer is then removed by spinning the PCR reaction mix through a Centricon 100 (Amicon Division, W R Grace & Co., Danvers, Mass.). […] After immobilization, the PCR product is detected with a commercially available biotin detection systems (BluGene Detection System; catalog #8179 SA; BRL). […]
PCR reagents are added and the samples reamplified for 30 cycles, and α-^32P-dCTP is present during the amplification. Following PCR, the reamplified samples are analyzed by denaturing PAGE as described above.
In a third method, a solution of AMT (100 μg/ml) is prepared and irradiated for 15 minutes on the CE-III device. […] The mix is then amplified for 30 cycles in the presence of α-^32P-dCTP, then analyzed by PAGE, as above. […]

tRNA = experiment: Photobinding of BIOMIP to tRNA, biotin detection (BluGene); format: binding; settings: 100 μg/ml, irradiated 30 minutes CE-III; no signal from unirradiated controls
Protocol: This example describes photobinding of ^3H-AMIP, ^3H-AMDMIP and BIOMIP to RNA. A tRNA stock was prepared at a concentration of 765 μg/ml in 1×TE/10 mM NaCl. Appropriate amounts of each compound were prepared in separate reaction vessels such that upon addition of 200 μl of the tRNA solution (153 μg) the final concentration of each compound was 100 μg/ml. […] were used in the experiment; the BIOMIP used was unlabelled. Each reaction vessel was then irradiated for 30 minutes at 25° C. in the CE-III device. Identical unirradiated reaction mixtures were used as controls for each compound. Following irradiation, each mixture was extracted with CHCl3 (4×200 μl ) then precipitated (×2). The pellets were resuspended in 1×TE and the binding levels determined as follows. For the two labelled compounds (^3H-AMDMIP and ^3H-AMIP), the nucleic acid concentration was determined optically and radioactivity measured by scintillation counting of aliquots of the stock solutions. Binding of the compounds was then calculated to be as follows:
To determine if binding of BIOMIP to tRNA has occurred, it was necessary to use a non-radioactive format which detected the biotin moiety on the compound. A commercial kit (“BluGene”; BRL) was used for this purpose. The kit instructions were followed for detection of both the control DNA (supplied with the kit) and BIOMIP treated tRNA. […]

Cc1oc2c(C)c3oc(=O)cc(C)c3cc2c1CN [AMT, 4′-aminomethyl-4,5′,8-trimethylpsoralen]
reamplification of treated PCR product [1]: does not reamplify

5-N-(N,N′-Dimethyl-(6-{biotinamido}-hexanoate)-1,6-hexanediamine])-methyl-isopsoralen [BIOMIP]
binding to tRNA by biotin detection (tRNA): covalently bound to the tRNA

Source: US6680025B2, “Device and method for photoactivation” (Cerus Corporation, priority 1989, dated 2004)
